For 18 compounds, EC50 results are on record in patent US7649002B2, “(3,5-dimethylpiperidin-1yl)(4-phenylpyrrolidin-3-yl)methanone derivatives as MCR4 agonists” (Pfizer Inc, priority 2004, dated 2010).

Structures can show the parent of a compound that is named as a salt.

In the first assay the target is T1, human MCR4 receptor (Homo sapiens, UniProt P32245).
T1 construct: expressed in transfected cells
T1 sequence (P32245 whole entry): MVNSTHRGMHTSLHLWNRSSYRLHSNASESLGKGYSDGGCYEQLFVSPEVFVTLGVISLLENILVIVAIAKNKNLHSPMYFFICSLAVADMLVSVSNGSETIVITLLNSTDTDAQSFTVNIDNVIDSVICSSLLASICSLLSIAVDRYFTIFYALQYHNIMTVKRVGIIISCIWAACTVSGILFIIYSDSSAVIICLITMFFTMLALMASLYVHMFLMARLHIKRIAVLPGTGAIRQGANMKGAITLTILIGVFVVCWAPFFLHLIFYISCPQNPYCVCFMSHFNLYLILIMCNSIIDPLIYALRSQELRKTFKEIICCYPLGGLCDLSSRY
Briefly: MCR4 improved functional assay (Protocol E): CHO-K1-MC4R-CRE-β-lactamase reporter. It is filed as cell-based. The note with it: Protocols C or E, read-out: functional potency at the MC4 receptor (EC50). From the text:
(ii) MCR5 Standard Functional Assay Methodology and MCR4 Improved Functional Assay Methodology [Assay Protocol D and E Respectively] […] These cell lines were engineered using protocols akin to those outlined by Zaccolo et al (Zaccolo, M., (2000) Nature, 2(1); 25-29). Compound-induced activation of the MCR5 or MCR4 receptors in these two cell lines stimulated the production, and intracellular accumulation, of the enzyme β-lactamase. The quantity of β-lactamase enzyme produced was directly proportional to the degree to which the test compound activated the MCR5 or MCR4 receptors present on these cells and was quantified using the P-lactamase gene reporter analysis kit that is commercially available from Invitrogen Life Technologies. An in-depth description of this technology and assay protocols are available from the Invitrogen web site (www.invitrogen.com). The protocol listed below provides a summary of that assay methodology. The quantity of β-lactamase enzyme produced by compound-induced activation of the MCR5 or MCR4 receptors expressed in these cell lines was quantified using a LjI Biosystems Analyst™ HT 96.384 plate reader set to excite at a wave length of 405 nm, and measure the energy emitted at wave lengths of 450 nm and 530 nm. Cellular responses were quantified by dividing the measured energy emitted at a wavelength of 450 nm by the measured energy emitted at a wavelength of 530 nm. […] CCF4-AM was dissolved in 100% DMSO to give a final solution concentration of 1 mM. This solution was termed Solution A. Probenecid was dissolved in 200 mM NaOH to give a final solution concentration of 200 mM. This solution was termed Solution D. Composition of the β-lactamase assay dye solution: for 1072 μL of assay dye solution combine: 12 μL of Solution A, 60 μL of Solution B, 925 μL of Solution C and 75 μL of Solution D. […] Cells were grown in T225 vent cap flasks containing 50 ml of growth medium and maintained in a cell incubator at a temperature of 37° C. and in an environment containing 5% CO2. The composition of the growth medium for the CHO-K1-MC5R-CRE-β-lactamase was 90% v/v DMEM supplemented with; Glutamax-1, 25 mM HEPES, 10% v/v foetal calf serum (FCS), 1 mM sodium pyruvate, 0.1 mM non essential amino acids and 800 μg/ml genetic in. For the CHO-K1-MC4R-CRE-β-lactamase this growth media was further supplemented with […] Zeocin. Cells were harvested when they reached 80-90% confluency by first removing the existing growth medium and then washing with PBS that had been pre-warmed to a temperature of 37° C. This PBS was then removed and 5 ml of cell dissociation fluid added to the flask. These cells were incubated for 5 minutes in a cell incubator set at a temperature of 37° C. and in an environment containing 5% CO2 to detach the cells. When cells were detached, pre-warmed growth media was added, the cells re-suspended and mixed gently to achieve a single cell suspension by pipetting. This cell suspension was then used for experimentation, or transferred into a new T225 flask to perpetuate the cell culture. […] For each assay the cell plates were then retuned to a cell incubator maintained at a temperature of 37° C. and in an environment containing 5% CO2 overnight before performing the assay on the second assay day. […] For the MCR4 improved functional assay methodology the solution of cyclohexamide was not added. Subsequently, 10 μL of the test compound solution was transferred to the assay plate. The assay plate was then transferred to a cell incubator, set at 37° C. and in an environment containing 5% CO2, and left for 4 hours for the MCR4 improved assay methodology, or 5 hours for the MCR5 standard assay methodology. After this incubation period the plate was removed from the incubator, 10 μL of the […] assay dye solution was added to each well and then the plate returned to the cell incubator.
One may read the EC50 as the concentration needed to bring the measured effect to its halfway point. `CC(C)N1C[C@@H](C(=O)N2C[C@@H](C)[C@](O)(c3ccc(F)c(F)c3)[C@@H](C)C2)[C@H](c2ccc(F)cc2F)C1` [Example 51, (3R,4R,5S)-4-(3,4-difluorophenyl)-1-{[(3S,4R)-4-(2,4-difluorophenyl)-1-isopropylpyrrolidin-3-yl]carbonyl}-3,5-dimethylpiperidin-4-ol hydrochloride]: the EC50 was below 50 nM.
In the case of `C[C@@H]1CN(C(=O)[C@@H]2CN(c3ccncn3)C[C@H]2c2ccc(F)cc2F)C[C@H](C)[C@@]1(O)c1ccccc1` [Example 42, (3R,4R,5S)-1-{[(3S,4R)-4-(2,4-difluorophenyl)-1-pyrimidin-4-ylpyrrolidin-3-yl]carbonyl}-3,5-dimethyl-4-phenylpiperidin-4-ol hydrochloride], the concentration for a half-maximal effect (EC50) was below 10 nM.
Still for that read-out and setting: the value for `C[C@@H]1CN(C(=O)[C@@H]2CN(C(C)(C)C)C[C@H]2c2ccc(F)cc2F)C[C@H](C)[C@@]1(O)c1ccc(F)cc1` [Example 9, (3R,4R,5S)-1-{[(3S,4R)-1-tert-butyl-4-(2,4-difluorophenyl)pyrrolidin-3-yl]carbonyl}-4-(4-fluorophenyl)-3,5-dimethylpiperidin-4-ol hydrochloride] was below 10 nM.
With `C[C@@H]1CN(C(=O)[C@@H]2CNC[C@H]2c2ccc(Cl)cc2)C[C@H](C)[C@@]1(O)c1ccccc1` [Example 48, (3R,4R,5S)-1-{[(3S,4R)-4-(4-Chlorophenyl)pyrrolidin-3-yl]carbonyl}-3,5-dimethyl-4-phenylpiperidin-4-ol hydrochloride], the 50% effective concentration (EC50) was below 150 nM.
For `CCC[C@@]1(O)[C@H](C)CN(C(=O)[C@@H]2CN(C(C)(C)C)C[C@H]2c2ccc(F)cc2F)C[C@@H]1C` [Example 40, (3R,4R,5S)-1-{[(3S,4R)-1-tert-Butyl-4-(24-difluorophenyl)pyrrolidin-3-yl]carbonyl}-3,5-dimethyl-4-propylpiperidin-4-ol hydrochloride], the EC50 was below 150 nM.
For the compound `C[C@@H]1CN(C(=O)[C@@H]2CN(c3cncnc3)C[C@H]2c2ccc(F)cc2F)C[C@H](C)[C@@]1(O)c1ccccc1` [Example 36, (3R,4R,5S)-1-{[(3S,4R)-4-(2,4-Difluorophenyl)-1-pyrimidin-5-ylpyrrolidin-3-yl]carbonyl}-3,5-dimethyl-4-phenylpiperidin-4-ol hydrochloride], the EC50 was below 150 nM.
The same measure, in the same setting: with `C[C@@H]1CN(C(=O)[C@@H]2CNC[C@H]2c2ccc(F)cc2F)C[C@H](C)[C@@]1(O)c1ccc(F)cc1F` [Example 16, (3R,4R,5S)-4-(2,4-difluorophenyl)-1-{[(3S,4R)-4-(2,4-difluorophenyl)pyrrolidin-3-yl]carbonyl}-3,5-dimethylpiperidin-4-ol hydrochloride] the figure was below 150 nM.
Consider `C[C@@H]1CN(C(=O)[C@@H]2CN(c3cccnn3)C[C@H]2c2ccc(F)cc2F)C[C@H](C)[C@@]1(O)c1ccccn1` [Example 47, (3R,4R,5S)-1-{[(3S,4R)-4-(2,4-Difluorophenyl)-1-pyridazin-3-ylpyrrolidin-3-yl]carbonyl}-3,5-dimethyl-4-pyridin-2-ylpiperidin-4-ol hydrochloride], for which the EC50 was below 10 nM.
Same read-out and setting: with `C[C@@H]1CN(C(=O)[C@@H]2CN(c3cccnc3)C[C@H]2c2ccc(F)cc2F)C[C@H](C)[C@@]1(O)c1ccccc1` [Example 34, (3R,4R,5S)-1-{[(3S,4R)-4-(2,4-Difluorophenyl)-1-pyridin-3-ylpyrrolidin-3-yl]carbonyl}-3,5-dimethyl-4-phenylpiperidin-4-ol hydrochloride] the figure was below 10 nM.
`C[C@@H]1CN(C(=O)[C@@H]2CN(c3cnccn3)C[C@H]2c2ccc(F)cc2F)C[C@H](C)[C@@]1(O)c1ccccc1` [Example 33, (3R,4R,5S)-1-{[(3S,4R)-4-(2,4-Difluorophenyl)-1-pyrazin-2-ylpyrrolidin-3-yl]carbonyl}-3,5-dimethyl-4-phenylpiperidin-4-ol hydrochloride]: the EC50 was below 150 nM.
The same measure, in the same setting: the value for `CCN1C[C@@H](C(=O)N2C[C@@H](C)[C@](O)(c3ccc(OC)cc3)[C@@H](C)C2)[C@H](c2ccc(F)cc2F)C1` [Example 14, (3R,4R,5S)-1-{[(3S,4R)-4-(2,4-difluorophenyl)-1-ethylpyrrolidin-3-yl]carbonyl}-4-(4-methoxyphenyl)-3,5-dimethylpiperidin-4-ol hydrochloride] was below 150 nM.
Turning to `C[C@@H]1CN(C(=O)[C@@H]2CN(C(C)(C)C)C[C@H]2c2ccc(F)cc2F)C[C@H](C)[C@@]1(O)c1c(F)cccc1F` [Example 17, (3R,4R,5S)-1-[{(3S,4R)-1-tert-butyl-4-(2,4-difluorophenyl)pyrrolidin-3-yl]carbonyl}-4-(2,6-difluorophenyl)-3,5-dimethylpiperidin-4-ol hydrochloride], the EC50 is below 50 nM.
For `C[C@@H]1CN(C(=O)[C@@H]2CNC[C@H]2c2ccc(F)cc2F)C[C@H](C)[C@@]1(O)c1cccc(F)c1` [Example 20, (3R,4R,5S)-1-{[(3S,4R)-4-(2,4-difluorophenyl)pyrrolidin-3-yl]carbonyl}-4-(3-fluorophenyl)-3,5-dimethylpiperidin-4-ol hydrochloride], the concentration for a half-maximal effect (EC50) was below 150 nM.
Still for that read-out and setting: the value for `C[C@@H]1CN(C(=O)[C@@H]2CN(c3ccncn3)C[C@H]2c2ccc(F)cc2F)C[C@H](C)[C@@]1(O)c1ccccn1` [Example 44, (3R,4R,5S)-1-{[(3S,4R)-4-(2,4-difluorophenyl)-1-pyrimidin-4-ylpyrrolidin-3-yl]carbonyl}-3,5-dimethyl-4-pyridin-2-ylpiperidin-4-ol hydrochloride] was below 50 nM; that for `CC(C)N1C[C@@H](C(=O)N2C[C@@H](C)[C@](O)(c3ccc(F)cc3)[C@@H](C)C2)[C@H](c2ccc(F)cc2F)C1` [Example 10, (3R,4R,5S)-1-{[(3S,4R)-4-(2,4-difluorophenyl)-1-isopropylpyrrolidin-3-yl]carbonyl}-4-(4-fluorophenyl)-3,5-dimethylpiperidin-4-ol hydrochloride] was below 150 nM.
Turning to `CC(C)N1C[C@@H](C(=O)N2C[C@@H](C)[C@](O)(c3ccc(Cl)cc3)[C@@H](C)C2)[C@H](c2ccc(F)cc2F)C1` [Example 50, (3R,4R,5S)-4-(4-chlorophenyl)-1-{[(3S,4R)-4-(2,4-difluorophenyl)-1-isopropylpyrrolidin-3-yl]carbonyl}-3,5-dimethylpiperidin-4-ol hydrochloride], the EC50 is below 150 nM.

Still in this assay, the particulars now being: Table 6, read-out: MCR4 EC50.
As for `C[C@@H]1CN(C(=O)[C@@H]2CNC[C@H]2c2ccc(F)cc2F)C[C@H](C)[C@@]1(O)c1ccc(F)cc1F` [Example 16, (3R,4R,5S)-4-(2,4-difluorophenyl)-1-{[(3S,4R)-4-(2,4-difluorophenyl)pyrrolidin-3-yl]carbonyl}-3,5-dimethylpiperidin-4-ol hydrochloride], the EC50 stood at 54 nM.
As to `C[C@@H]1CN(C(=O)[C@@H]2CN(c3cccnc3)C[C@H]2c2ccc(F)cc2F)C[C@H](C)[C@@]1(O)c1ccccc1` [Example 34, (3R,4R,5S)-1-{[(3S,4R)-4-(2,4-Difluorophenyl)-1-pyridin-3-ylpyrrolidin-3-yl]carbonyl}-3,5-dimethyl-4-phenylpiperidin-4-ol hydrochloride], the EC50 came out at 4 nM.

The same assay, now with this note: functional potency at the MC4 receptor (EC50), Protocols C or E.
`CCN1C[C@@H](C(=O)N2C[C@@H](C)[C@](O)(c3cccc(F)c3)[C@@H](C)C2)[C@H](c2ccc(F)cc2F)C1` [Example 53, (3R,4R,5S)-1-{[(3S,4R)-4-(2,4-difluorophenyl)-1-ethylpyrrolidin-3-yl]carbonyl}-4-(3-fluorophenyl)-3,5-dimethylpiperidin-4-ol hydrochloride] returned an EC50 below 50 nM.
In the case of `C[C@@H]1CN(C(=O)[C@@H]2CN(C(C)(C)C)C[C@H]2c2ccc(F)cc2F)C[C@H](C)[C@@]1(O)c1cccc(F)c1` [Example 19, (3R,4R,5S)-1-{[(3S,4R)-1-tert-butyl-4-(2,4-difluorophenyl)pyrrolidin-3-yl]carbonyl}-4-(3-fluorophenyl)-3,5-dimethylpiperidin-4-ol hydrochloride], the EC50 was below 10 nM.
